Laboratory results published in patent publication US20230136562A1, “SPIROUREA DERIVATIVES” (Idorsia Pharmaceuticals Ltd, priority 2020, published 2023).
Read-outs that look alike come from different tables or passages of the source.

Tested on: primary neuronal cultures from embryonic rat brains
Assay: Rat oscillation assay (FLIPR, neuronal calcium oscillations)
Format: cell-based
Protocol: A) Rat Oscillation Assay:
This assay is a functional phenotypic assay designed to mimic epileptic seizures using primary neuronal cultures from embryonic rat brains, which form a functional neuronal network that generate synchronized intracellular calcium concentration oscillations when cultured at high density in 384-well plate. The epileptic phenotype is induced by incubating the neurons in magnesium-free assay buffer, that results in increased probability of NMDA receptor activation, leading to an increased frequency and amplitude of intracellular calcium oscillations. Once neurons are incubated with the calcium indicator dye Fluo-8 AM (Tebu-bio), neuronal calcium oscillations can be monitored in real time using FLIPR® Tetra (fluorometric plate reader, Molecular Devices). With these recordings, the effect of anti-epileptic drugs can be quantified. The anti-epileptic effect of compounds, which activate directly or indirectly the Kv7 channels can be modulated by the Kv7 channel blocker XE-991. The assay was performed as described previously (Pacico N, Mingorance-Le Meur A. New In Vitro Phenotypic Assay for Epilepsy: Fluorescent Measurement of Synchronized Neuronal Calcium Oscillations. PLoS ONE 9(1) 2014) with modifications described hereafter.
Animal care followed standard procedures in accordance with swiss institutional guidelines. Dissociated neuronal cultures were obtained from cerebral cortices of embryonic Wistar rats at embryonic stage E18 (Charles River). The uterine horns were removed by caesarian surgery from deeply anesthetized rats (Isofurane) and sacrificed by decapitation. The embryos were decapitated by closing forceps. The brains were isolated and dissected one by one in ice-cold PBS (Life Technologies) under optical control using a binocular. Meninges, olfactory bulbs, and basal ganglia were removed. Cortical hemispheres (still including the hippocampus) were cut in small pieces with tweezers and placed on ice in pre-chilled Hibernate-E medium (Life technology). The hemispheres were then incubated in 10 mL of Hibernate-E containing 15 U/mL papain (Worthington) for 25 min at 30° C. with gentle mixing every 10 min. Genomic DNA was then digested by prolonging the incubation during 10 min at 37° C. in presence of 4 U/mL rDNase I (Ambion). The obtained suspension was then centrifuged at 800 g for 5 min and the cell pellet was resuspended in 2 mL Hibernate-E and gently dissociated by pipetting up and down 10 times with a plastic Pasteur pipette resulting in a homogenous cell suspension. This suspension was immediately filtered through a 70 µm cell strainer (MACS® SmartStrainer, Miltenyi), collected in 10 mL Hibernate-E and centrifuged at 800 g for 5 min. The cell pellet was resuspended in Neurobasal medium, supplemented with 2% B-27, 0.5 mM Glutamax-I, 100 U/mL penicillin, 100 µg/mL streptomycin (Life Technologies) and diluted at the final concentration of 300′000 cells/mL. One day before plating the cells, 384-well plates were coated with 25 μL/well of 0.1% poly-L-lysine solution (Sigma), incubated overnight at 37° C., washed two times with sterile distilled water and allowed to dry at room temperature for >2 h. The neurons were seeded at a density of 15′000 cells/well in 50 μL/well in a 384-well black, clear-bottomed plates (Corning) and subsequently maintained in an incubator at 37° C., 5% CO2 and 95% humidity for 8 to 10 days. After 3 and 7 days, 40% of media was renewed under sterile conditions.
Protocol Rat Oscillation Assay
Neurons seeded in the assay plates were washed with Hank's balanced salt solution (HBSS) devoid of Ca^2+ and Mg^2+, supplemented with 20 mM HEPES (Life Technologies) and 2 mM CaCl2 (Sigma), pH 7.4 (hereafter called Assay buffer) using a Biotek EL406 plate washer. Neurons were loaded with 1 μM Fluo-8 AM in Assay buffer for 15 min at 37° C., 5% CO2. […]

[1] = Rattus norvegicus, 20 min, AUC of fluorescence measured 20 min after compound addition, read-out: FLIPR: IC50 [nM] 20 min
[2] = Rattus norvegicus, Acute phase, ratio of AUC fluorescence before and after compound addition, read-out: FLIPR: IC50 [nM] acute

Compound | IC50 [1] [nM] | IC50 [2] [nM] | IC50 (AUC of fluorescence measured 20 min after compound addition, read-out: FLIPR: IC50 [nM] 20 min) [nM] | IC50 (Acute phase, ratio of AUC fluorescence before and after compound addition, read-out: FLIPR: IC50 [nM] acute) [nM]
O=C(NCc1cccc(S(F)(F)(F)(F)F)c1)NC1CC2(CC2)C1 [Example 130, 1-(3-(pentafluoro-λ^6-sulfaneyl)benzyl)-3-(spiro[2.3]hexan-5-yl)urea] | 42 | 30 |  | 
CC(NC(=O)NC1CC2(CC2)C1)c1cccc2c1OC(F)(F)O2 (racemic) [Example 121, (±)-1-[1-(2,2-Difluoro-benzo[1,3]dioxol-4-yl)-ethyl]-3-spiro[2.3]hex-5-yl-urea] | 1210 | 990 |  | 
CC(NC(=O)NC1CC2(CC2)C1)c1cccc(OCC(F)(F)F)c1F (racemic) [Example 131, (±)-1-{1-[2-Fluoro-3-(2,2,2-trifluoro-ethoxy)-phenyl]-ethyl}-3-spiro[2.3]hex-5-yl-urea] | 52 | 29 |  | 
O=C(NC1CC2(CCC2)C1)NC1(c2ccnc(OCC(F)(F)F)c2)CCOCC1 [Example 49, 1-Spiro[3.3]hept-2-yl-3-{4-[2-(2,2,2-trifluoro-ethoxy)-pyridin-4-yl]-tetrahydro-pyran-4-yl}-urea] | 1530 | 680 |  | 
CC(NC(=O)NC1CC2(CC(I)C2)C1)c1ccnc(OC(F)F)c1 (racemic) [Example 166, (±)-1-[1-(2-Difluoromethoxy-pyridin-4-yl)-ethyl]-3-(6-iodo-spiro[3.3]hept-2-yl)-urea] | 474 | 889 |  | 
CC(Oc1cc(F)cc(CNC(=O)NC2CC3(CCC3)C2)c1)C(F)(F)F (racemic) [Example 110, (±)-1-[3-Fluoro-5-(2,2,2-trifluoro-1-methyl-ethoxy)-benzyl]-3-spiro[3.3]hept-2-yl-urea] | 62 | 88 |  | 
CC(NC(=O)NC1CC2(CCC2)C1)c1cccc(S(F)(F)(F)(F)F)c1 (racemic) [Example 34, (±)-1-(1-(3-(pentafluoro-λ^6-sulfaneyl)phenyl)ethyl)-3-(spiro[3.3]heptan-2-yl)urea] | 8.5 | 6.7 |  | 
O=C(NCc1cccc(OCC(F)(F)F)c1)NC1CC2(CCC2)C1 [Example 14, 1-Spiro[3.3]hept-2-yl-3-[3-(2,2,2-trifluoro-ethoxy)-benzyl]-urea] | 27 | 31 |  | 
CS(=O)(=O)CC(NC(=O)NC1CC2(CCC2)C1)c1cccc(OC(F)(F)F)c1 (racemic) [Example 64, (±)-1-[2-Methanesulfonyl-1-(3-trifluoromethoxy-phenyl)-ethyl]-3-spiro[3.3]hept-2-yl-urea] | 47 | 44 |  | 
C[C@@H](NC(=O)NC1CC2(CCC2)C1)c1ccnc(OC(F)F)c1 (single isomer, unassigned) [Example 167] | 1750 | 1280 |  | 
CC(NC(=O)NC1CC2(CCC2)C1)c1ccnc(OC(F)(F)F)c1 (racemic) [Example 97, (±)-1-Spiro[3.3]hept-2-yl-3-[1-(2-trifluoromethoxy-pyridin-4-yl)-ethyl]-urea] | 170 | 53 |  | 
COc1c(OCC(F)(F)F)ncnc1C(C)NC(=O)NC1CC2(CC2)C1 (racemic) [Example 152, (±)-1-{1-[5-Methoxy-6-(2,2,2-trifluoro-ethoxy)-pyrimidin-4-yl]-ethyl}-3-spiro[2.3]hex-5-yl-urea] | 532 | 520 |  | 
CC(NC(=O)NC1CC2(CCC2)C1)c1cc(Cl)cc(OCC(F)(F)F)c1 (racemic) [Example 33, (±)-1-{1-[3-Chloro-5-(2,2,2-trifluoro-ethoxy)-phenyl]-ethyl}-3-spiro[3.3]hept-2-yl-urea] | 65 | 80 |  | 
O=C(NCc1cccc(OC(F)F)c1)NC1CC2(CCC2)C1 [Example 13, 1-(3-Difluoromethoxy-benzyl)-3-spiro[3.3]hept-2-yl-urea] | 133 | 88 |  | 
O=C(NCc1cccc(S(=O)(=O)C(F)(F)F)c1)NC1CC2(CCC2)C1 [Example 42, 1-Spiro[3.3]hept-2-yl-3-(3-trifluoromethanesulfonyl-benzyl)-urea] | 22 | 27 |  | 
COCC(Oc1cc(CNC(=O)NC2CC3(CCC3)C2)ccn1)C(F)(F)F (single isomer, unassigned) [Example 171, 1-Spiro[3.3]hept-2-yl-3-[2-(2,2,2-trifluoro-1-methoxymethyl-ethoxy)-pyridin-4-ylmethyl]-urea] |  |  | 377 | 252
CC(NC(=O)NC1CC2(CCC2)C1)c1cccc(OCC(F)(F)F)c1Cl (racemic) [Example 30, (±)-1-{1-[2-Chloro-3-(2,2,2-trifluoro-ethoxy)-phenyl]-ethyl}-3-spiro[3.3]hept-2-yl-urea] | 269 | 252 |  | 
CC(NC(=O)NC1CC2(CC2)C1)c1cc(OCC(F)(F)F)ncn1 (racemic) [Example 144, (±)-1-Spiro[2.3]hex-5-yl-3-{1-[6-(2,2,2-trifluoro-ethoxy)-pyrimidin-4-yl]-ethyl}-urea] | 119 | 96 |  | 
CC(NC(=O)NC1CC2(CC2)C1)c1cccc(C(F)(F)F)c1 (racemic) [Example 140, (±)-1-Spiro[2.3]hex-5-yl-3-[1-(3-trifluoromethyl-phenyl)-ethyl]-urea] | 59 | 27 |  | 
O=C(NCc1ccc(F)c(C(F)(F)F)c1)NC1CC2(CC2)C1 [Example 148, 1-(4-Fluoro-3-trifluoromethyl-benzyl)-3-spiro[2.3]hex-5-yl-urea] | 355 | 312 |  | 
O=C(NC1CC2(CCC2)C1)N[C@@H](CO)c1cccc(C(F)(F)F)c1 (single isomer, unassigned) [Example 184] | 5.7 | 8.8 |  | 
O=C(NCc1cccc(C(F)(F)F)c1Cl)NC1CC2(CC2)C1 [Example 150, 1-(2-Chloro-3-trifluoromethyl-benzyl)-3-spiro[2.3]hex-5-yl-urea] | 1160 | 1080 |  | 
Cn1nnnc1C(NC(=O)NC1CC2(CCC2)C1)c1cccc(C(F)(F)F)c1 (racemic) [Example 163, (±)-1-[(1-Methyl-1H-tetrazol-5-yl)-(3-trifluoromethyl-phenyl)-methyl]-3-spiro[3.3]hept-2-yl-urea] | 282 | 204 |  | 
COCC(NC(=O)NC1CC2(CCC2)C1)c1cccc(OCC(F)(F)F)c1 (racemic) [Example 91, (±)-1-{2-Methoxy-1-[3-(2,2,2-trifluoro-ethoxy)-phenyl]-ethyl}-3-spiro[3.3]hept-2-yl-urea] | 1.4 | 3.4 |  | 
CNC(=O)C(NC(=O)NC1CC2(CCC2)C1)c1cccc(C(F)(F)F)c1 (racemic) [Example 63, (±)-N-Methyl-2-(3-spiro[3.3]hept-2-yl-ureido)-2-(3-trifluoromethyl-phenyl)-acetamide] | 92 | 46 |  | 
CCOCCC(NC(=O)NC1CC2(CCC2)C1)c1ccnc(OCC(F)(F)F)c1 (racemic) [Example 77, (±)-1-{3-Ethoxy-1-[2-(2,2,2-trifluoro-ethoxy)-pyridin-4-yl]-propyl}-3-spiro[3.3]hept-2-yl-urea] | 226 | 279 |  | 
Cc1ccc(C(C)NC(=O)NC2CC3(CCC3)C2)cc1OCC(F)(F)F (racemic) [Example 26, (±)-1-{1-[4-Methyl-3-(2,2,2-trifluoro-ethoxy)-phenyl]-ethyl}-3-spiro[3.3]hept-2-yl-urea] | 206 | 190 |  | 
CC(NC(=O)NC1CC2(CC2)C1)c1ccnc(OC(F)F)c1 (racemic) [Example 139, (±)-1-[1-(2-Difluoromethoxy-pyridin-4-yl)-ethyl]-3-spiro[2.3]hex-5-yl-urea] | 365 | 186 |  | 
